According to patent US20130165368A1, “ANTIMICROBIAL COMPOUNDS” (priority 2010, published 2013):
Converted amounts (≈) assume the structure as drawn. Where two headings read alike, the source gives them in different places.

Legend:
Assay type in all cases: cell-based
Staphylococcus aureus = assay: MIC agar dilution, micro-organism 13 (6571); conditions: Staphylococcus aureus 6571, read-out: MIC
How it was run: (§1)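 Agar dilution in Isosensitest/CCEY agar with egg yolk and lysed horse blood; compounds as aqueous emulsions (myristyl and lauryl alcohol with 1-methyl-2-pyrrolidone and Tween 20). 1 µL spots of 1/15-diluted 0.5 McFarland suspensions, 37 °C aerobic, read at 22 and 48 h; MIC (mmol/L) is lowest concentration giving <10 colonies.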

MRSA FIN 54511 (E6) = assay: MIC agar dilution, MRSA strain 32; conditions: Staphylococcus aureus
Description: (§2) Molar equivalent concentrations were used to allow comparison between compounds of differing molecular mass. Due to weighing difficulties, any compound in solid form was melted in a water bath prior to dilution. To make ten-times strength concentrations, which takes into account agar dilution, 0.0352 mmol of each compound was weighed into plastic universal bottles and 4 mL of sterile distilled water (SDW) was added. To produce a homogenous emulsion the universals were vortexed; once achieved the emulsions were serial diluted by adding 2 mL to 2 mL of SDW.
(§3) For every 100 mL of Isosensitest agar (IST) (CM0471; Oxoid, Basingstoke, England), 3.1 g of the IST powder was added to 100 mL SDW (as per manufacturer's instructions) and sterilised for 15 minutes at 121° C. Once sterilised, the molten agar was cooled to 50° C. in a water-bath. Subsequently 4.8 g of CCEY powder (BC2160; Bioconnections, Wetherby, England), also known as Brazier's medium, was added to 100 mL SDW for every 100 mL of agar needed. This was then sterilised for 15 minutes at 121° C. Once sterilised the molten agar was cooled to 50° C. in a water-bath and 4 mL of egg-yolk emulsion (S2073; TCS Biosciences Ltd, Buckingham, United Kingdom) and 1 mL of lysed defibrinated horse blood (HB035; TCS Biosciences Ltd, Buckingham, United Kingdom) were also added for every 100 mL needed. Horse blood lysis is achieved by dilution to half concentration with SDW; when fully lysed the mixture will turn dark red in colour.
(§4) 18 mL agar was added to each universal and then poured into sterile Petri dishes. This step creates a 1/10 dilution resulting in agar plates of the required strength. Control plates for each set of strains were created by adding 18 mL of agar to 2 mL of SDW.
(§5) Suspensions of each bacterial species were prepared with a density equal to that of a 0.5 McFarland standard using a densitometer. All suspensions were made using sterile distilled water and fresh 18-20 hour cultures. As a 0.5 McFarland standard contains 1.5×10^8 CFU/mL and the multipoint inoculators applies 1 μL spots of liquid, each bacterial suspension was diluted 1/15 (20 μL suspension to 280 μL sterile distilled water).
(§6) Bacterial suspensions were prepared from fresh 18-24 hour cultures as previously described. 1 μL of each strain was inoculated onto all 100 agar plates containing a different chemical concentration and the 2 control plates. This was done using a multipoint inoculator which inoculates 20 strains per plate. All plates were incubated for 22 hours at 37° C. in aerobic conditions.
(§7) Each plate was examined for bacterial growth after 22 and 48 hours, with each being incubated in between examinations. A positive result was recorded as growth of ≧10 colonies. A negative result was recorded as growth of <10 colonies as this is equivalent to 99.9% inhibition. The lowest concentration of chemical that inhibited growth was recorded as the MIC. The results are recorded in Table IV below, where the numbers are quoted in mmol/L.
(§8) Given the positive performance of the ethoxylates of lauryl alcohol in reducing the MIC for a number of the micro-organisms tested, further MIC testing of Laureth-1 [C12E1] through to Laureth-8 [C12E8] was conducted on each of the following: • 10 strains of vancomycin-resistant enterococci (VRE)—listed in Table V below; and • 20 strains of methicillin-resistant Staphylococcus aureus (MRSA)—listed in Table VI.
(§9) The alkanol, alkanol derivatives, agar plates, and inocula were all prepared in the same way as described above.
(§10) The plates were examined in the same manner as described above and the results are recorded in Table VII below, where the numbers are quoted in mmol/L.

MRSA FRA 920 = assay: MIC agar dilution, MRSA strain 38; conditions: Staphylococcus aureus
Description: as §2, §3, §4, §5, §6, §7, §8, §9, §10

[1] = system: Enterococcus faecium (VRE) MB 3137; assay: MIC agar dilution, VRE strain 26
Description: as §2, §3, §4, §5, §6, §7, §8, §9, §10

[2] = system: Enterococcus faecium (VRE) NCTC 12952; assay: MIC agar dilution, VRE strain 30
Description: as §2, §3, §4, §5, §6, §7, §8, §9, §10

[3] = system: Enterococcus faecalis (VRE) PHLS URINE 2000; assay: MIC agar dilution, VRE strain 21
Description: as §2, §3, §4, §5, §6, §7, §8, §9, §10

[4] = system: MRSA GER 1966/97 (Hanover IIIc); assay: MIC agar dilution, MRSA strain 36; conditions: Staphylococcus aureus
Description: as §2, §3, §4, §5, §6, §7, §8, §9, §10

Escherichia coli = assay: MIC agar dilution, micro-organism 1 (10418); conditions: Escherichia coli 10418, read-out: MIC
How it was run: as §1

Bacillus subtilis = assay: MIC agar dilution, micro-organism 18 (9372); conditions: Bacillus subtilis 9372, read-out: MIC
How it was run: as §1

MRSA NCTC 11939 = assay: MIC agar dilution, MRSA strain 50; conditions: Staphylococcus aureus, MRSA strain 50 NCTC 11939
Description: as §2, §3, §4, §5, §6, §7, §8, §9, §10

MRSA BEL 97598 = assay: MIC agar dilution, MRSA strain 34; conditions: Staphylococcus aureus
Description: as §2, §3, §4, §5, §6, §7, §8, §9, §10

MRSA EMRSA 15 1758/98 = assay: MIC agar dilution, MRSA strain 43; conditions: Staphylococcus aureus
Description: as §2, §3, §4, §5, §6, §7, §8, §9, §10

MRSA EMRSA 16 18200/95 = assay: MIC agar dilution, MRSA strain 48; conditions: Staphylococcus aureus
Description: as §2, §3, §4, §5, §6, §7, §8, §9, §10

[5] = Staphylococcus aureus, 22 h, 22 hrs
[6] = Staphylococcus aureus, 48 h, 48 hrs

Row | Compound | MIC (MRSA FIN 54511 (E6); 22 hrs) | MIC (MRSA FIN 54511 (E6); 48 hrs) | MIC (MRSA FRA 920; 22 hrs) | MIC (MRSA FRA 920; 48 hrs) | MIC ([1]; 22 hrs) | MIC ([1]; 48 hrs) | MIC ([2]; 22 hrs) | MIC ([2]; 48 hrs) | MIC ([3]; 22 hrs) | MIC ([3]; 48 hrs) | MIC ([4]; 22 hrs) | MIC ([4]; 48 hrs) | MIC (Escherichia coli; 22 hrs) | MIC (Escherichia coli; 48 hrs) | MIC (Bacillus subtilis; 22 hrs) | MIC (Bacillus subtilis; 48 hrs) | MIC (MRSA NCTC 11939; 22 hrs) | MIC (MRSA NCTC 11939; 48 hrs) | MIC (MRSA BEL 97598; 22 hrs) | MIC (MRSA BEL 97598; 48 hrs) | other results
1 | CCCCCCCCCCCCOCCOCCOCCOCCOCCO [L5, Pentaethylene Glycol Monododecyl Ether] | 110 µM (≈ 44.7 µg/mL) | 220 µM (≈ 89.5 µg/mL) | 110 µM (≈ 44.7 µg/mL) | 110 µM (≈ 44.7 µg/mL) | 440 µM (≈ 179 µg/mL) | > 880 µM | 220 µM (≈ 89.5 µg/mL) | 220 µM (≈ 89.5 µg/mL) | 110 µM (≈ 44.7 µg/mL) | 110 µM (≈ 44.7 µg/mL) | 110 µM (≈ 44.7 µg/mL) | 110 µM (≈ 44.7 µg/mL) | > 880 µM | > 880 µM | 110 µM (≈ 44.7 µg/mL) | 110 µM (≈ 44.7 µg/mL) | 110 µM (≈ 44.7 µg/mL) | 110 µM (≈ 44.7 µg/mL) | 110 µM (≈ 44.7 µg/mL) | 110 µM (≈ 44.7 µg/mL) | MIC (Staphylococcus aureus; [5]): 110 µM (≈ 44.7 µg/mL); MIC (Staphylococcus aureus; [6]): 110 µM (≈ 44.7 µg/mL); MIC (MRSA EMRSA 15 1758/98; 22 hrs): 110 µM (≈ 44.7 µg/mL); MIC (MRSA EMRSA 15 1758/98; 48 hrs): 110 µM (≈ 44.7 µg/mL); MIC (MRSA EMRSA 16 18200/95; 22 hrs): 110 µM (≈ 44.7 µg/mL); MIC (MRSA EMRSA 16 18200/95; 48 hrs): 110 µM (≈ 44.7 µg/mL)
2 | CCCCCCCCCCCCOCCOCCOCCOCCOCCOCCO [L6, Hexaethylene Glycol Monododecyl Ether] | 110 µM (≈ 49.6 µg/mL) | 110 µM (≈ 49.6 µg/mL) | 220 µM (≈ 99.1 µg/mL) | 220 µM (≈ 99.1 µg/mL) | 880 µM (≈ 397 µg/mL) | > 880 µM | > 880 µM | > 880 µM | 220 µM (≈ 99.1 µg/mL) | 220 µM (≈ 99.1 µg/mL) | 110 µM (≈ 49.6 µg/mL) | 110 µM (≈ 49.6 µg/mL) | > 880 µM | > 880 µM | 110 µM (≈ 49.6 µg/mL) | 110 µM (≈ 49.6 µg/mL) | 110 µM (≈ 49.6 µg/mL) | 110 µM (≈ 49.6 µg/mL) | 220 µM (≈ 99.1 µg/mL) | 220 µM (≈ 99.1 µg/mL) | MIC (Staphylococcus aureus; [5]): 110 µM (≈ 49.6 µg/mL); MIC (Staphylococcus aureus; [6]): 110 µM (≈ 49.6 µg/mL); MIC (MRSA EMRSA 15 1758/98; 22 hrs): 110 µM (≈ 49.6 µg/mL); MIC (MRSA EMRSA 15 1758/98; 48 hrs): 110 µM (≈ 49.6 µg/mL); MIC (MRSA EMRSA 16 18200/95; 22 hrs): 110 µM (≈ 49.6 µg/mL); MIC (MRSA EMRSA 16 18200/95; 48 hrs): 220 µM (≈ 99.1 µg/mL)
3 | CCCCCCCCCCCCOCCOCCOCCOCCOCCOCCOCCO [L7, Heptaethylene Glycol Monododecyl Ether] | 110 µM (≈ 54.4 µg/mL) | 440 µM (≈ 218 µg/mL) | 220 µM (≈ 109 µg/mL) | 440 µM (≈ 218 µg/mL) | > 880 µM | > 880 µM | > 880 µM | > 880 µM | 440 µM (≈ 218 µg/mL) | 880 µM (≈ 435 µg/mL) | 110 µM (≈ 54.4 µg/mL) | 110 µM (≈ 54.4 µg/mL) | > 880 µM | > 880 µM | 110 µM (≈ 54.4 µg/mL) | 110 µM (≈ 54.4 µg/mL) | 110 µM (≈ 54.4 µg/mL) | 110 µM (≈ 54.4 µg/mL) | > 440 µM | > 440 µM | MIC (Staphylococcus aureus; 22 hrs): 110 µM (≈ 54.4 µg/mL); MIC (Staphylococcus aureus; 48 hrs): 110 µM (≈ 54.4 µg/mL); MIC (MRSA EMRSA 15 1758/98; 22 hrs): 220 µM (≈ 109 µg/mL); MIC (MRSA EMRSA 15 1758/98; 48 hrs): 220 µM (≈ 109 µg/mL); MIC (MRSA EMRSA 16 18200/95; 22 hrs): 220 µM (≈ 109 µg/mL); MIC (MRSA EMRSA 16 18200/95; 48 hrs): > 440 µM
